Experimental data: PubChem BioAssay (NCI)
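Five compound concentrations were applied to cells in 96-well plates for 48 hours; endpoints were derived by simple linear interpolation of the resulting dose-response curve. At the GI50, growth is halved. The concentration for full growth arrest is given as TGI.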

What was measured:
Assay in all cases: NCI anticancer screen, dose series, 48 h
HS 578T breast = tested on: HS 578T breast
MCF7 breast = tested on: MCF7 breast
RPMI-8226 leukemia = tested on: RPMI-8226 leukemia
HOP-62 NSCLC = tested on: HOP-62 NSCLC
CCRF-CEM leukemia = tested on: CCRF-CEM leukemia
NCI-H460 lung = tested on: NCI-H460 lung
HCT-116 colon = tested on: HCT-116 colon
BT-549 breast = tested on: BT-549 breast
KM12 colon = tested on: KM12 colon
NCI-H522 lung = tested on: NCI-H522 lung
MDA-MB-231 breast = tested on: MDA-MB-231 breast
ACHN renal = tested on: ACHN renal
786-0 renal = tested on: 786-0 renal
HCC-2998 colon = tested on: HCC-2998 colon
NCI-H23 lung = tested on: NCI-H23 lung
IGROV1 ovarian = tested on: IGROV1 ovarian
HL-60(TB) leukemia = tested on: HL-60(TB) leukemia
SN12C renal = tested on: SN12C renal
SF-539 CNS = tested on: SF-539 CNS
MALME-3M melanoma = tested on: MALME-3M melanoma
HT29 colon = tested on: HT29 colon
NCI/ADR-RES ovarian = tested on: NCI/ADR-RES ovarian
T-47D breast = tested on: T-47D breast
LOX IMVI melanoma = tested on: LOX IMVI melanoma
SK-OV-3 ovarian = tested on: SK-OV-3 ovarian
CAKI-1 renal = tested on: CAKI-1 renal
OVCAR-8 ovarian = tested on: OVCAR-8 ovarian
UACC-62 melanoma = tested on: UACC-62 melanoma
SF-295 CNS = tested on: SF-295 CNS
UO-31 renal = tested on: UO-31 renal
SNB-75 CNS = tested on: SNB-75 CNS
NCI-H226 lung = tested on: NCI-H226 lung
EKVX NSCLC = tested on: EKVX NSCLC
COLO 205 colon = tested on: COLO 205 colon
SF-268 CNS = tested on: SF-268 CNS
A549 NSCLC = tested on: A549 NSCLC
MDA-MB-435 = tested on: MDA-MB-435
SR leukemia = tested on: SR leukemia
SK-MEL-28 melanoma = tested on: SK-MEL-28 melanoma
U251 CNS = tested on: U251 CNS
SW-620 colon = tested on: SW-620 colon
HCT-15 colon = tested on: HCT-15 colon
SK-MEL-5 melanoma = tested on: SK-MEL-5 melanoma
UACC-257 melanoma = tested on: UACC-257 melanoma
RXF 393 renal = tested on: RXF 393 renal
OVCAR-4 ovarian = tested on: OVCAR-4 ovarian
K-562 leukemia = tested on: K-562 leukemia
MOLT-4 leukemia = tested on: MOLT-4 leukemia
HOP-92 NSCLC = tested on: HOP-92 NSCLC
PC-3 prostate = tested on: PC-3 prostate
TK-10 renal = tested on: TK-10 renal
DU-145 prostate = tested on: DU-145 prostate
SNB-19 CNS = tested on: SNB-19 CNS
SK-MEL-2 melanoma = tested on: SK-MEL-2 melanoma
M14 melanoma = tested on: M14 melanoma
OVCAR-3 ovarian = tested on: OVCAR-3 ovarian
A498 renal = tested on: A498 renal
OVCAR-5 ovarian = tested on: OVCAR-5 ovarian

CC(=O)c1c(Nc2cccc(F)c2)[nH]c2c(Cl)cc(Cl)c(Cl)c2c1=O
GI50 (HS 578T breast): 278 nM | TGI (HS 578T breast): > 100000 nM | GI50 (MCF7 breast): 309 nM | TGI (MCF7 breast): > 100000 nM | GI50 (RPMI-8226 leukemia): 232 nM | TGI (RPMI-8226 leukemia): 2180 nM | GI50 (HOP-62 NSCLC): 418 nM | TGI (HOP-62 NSCLC): 11000 nM | GI50 (CCRF-CEM leukemia): 346 nM | TGI (CCRF-CEM leukemia): > 100000 nM | GI50 (NCI-H460 lung): 360 nM | TGI (NCI-H460 lung): > 100000 nM | GI50 (HCT-116 colon): 302 nM | TGI (HCT-116 colon): > 44100 nM | GI50 (BT-549 breast): 457 nM | TGI (BT-549 breast): 8310 nM | GI50 (KM12 colon): 346 nM | GI50 (NCI-H522 lung): 289 nM | TGI (NCI-H522 lung): > 100000 nM | GI50 (MDA-MB-231 breast): 259 nM | TGI (MDA-MB-231 breast): 1940 nM | GI50 (ACHN renal): 411 nM | TGI (ACHN renal): > 28600 nM | GI50 (786-0 renal): 471 nM | TGI (786-0 renal): > 100000 nM | GI50 (HCC-2998 colon): 333 nM | TGI (HCC-2998 colon): > 100000 nM | GI50 (NCI-H23 lung): 262 nM | TGI (NCI-H23 lung): 1940 nM | GI50 (IGROV1 ovarian): 440 nM | TGI (IGROV1 ovarian): > 100000 nM | GI50 (HL-60(TB) leukemia): 337 nM | TGI (HL-60(TB) leukemia): 1540 nM | GI50 (SN12C renal): 289 nM | GI50 (SF-539 CNS): 369 nM | GI50 (MALME-3M melanoma): 264 nM | TGI (MALME-3M melanoma): 1020 nM | GI50 (HT29 colon): 387 nM | TGI (HT29 colon): > 100000 nM | GI50 (NCI/ADR-RES ovarian): 297 nM | TGI (NCI/ADR-RES ovarian): 9890 nM | GI50 (T-47D breast): 288 nM | GI50 (LOX IMVI melanoma): 487 nM | TGI (LOX IMVI melanoma): 12800 nM | GI50 (SK-OV-3 ovarian): 263 nM | TGI (SK-OV-3 ovarian): 4860 nM | GI50 (CAKI-1 renal): 259 nM | TGI (CAKI-1 renal): 1830 nM | GI50 (OVCAR-8 ovarian): 363 nM | TGI (OVCAR-8 ovarian): > 100000 nM | GI50 (UACC-62 melanoma): 253 nM | TGI (UACC-62 melanoma): 793 nM | GI50 (SF-295 CNS): 336 nM | TGI (SF-295 CNS): 1810 nM | GI50 (UO-31 renal): 216 nM | TGI (UO-31 renal): 5940 nM | GI50 (SNB-75 CNS): 508 nM | TGI (SNB-75 CNS): > 22000 nM | GI50 (NCI-H226 lung): 343 nM | TGI (NCI-H226 lung): 2930 nM | GI50 (EKVX NSCLC): 333 nM | TGI (EKVX NSCLC): > 100000 nM | GI50 (COLO 205 colon): 440 nM | TGI (COLO 205 colon): 2480 nM | GI50 (SF-268 CNS): 333 nM | TGI (SF-268 CNS): > 100000 nM | GI50 (A549 NSCLC): 479 nM | TGI (A549 NSCLC): > 100000 nM | GI50 (MDA-MB-435): 425 nM | TGI (MDA-MB-435): 8550 nM | GI50 (SR leukemia): 697 nM | TGI (SR leukemia): > 100000 nM | GI50 (SK-MEL-28 melanoma): 377 nM | TGI (SK-MEL-28 melanoma): 4830 nM | GI50 (U251 CNS): 270 nM | TGI (U251 CNS): > 100000 nM | GI50 (SW-620 colon): 366 nM | TGI (SW-620 colon): > 100000 nM | GI50 (HCT-15 colon): 296 nM | TGI (HCT-15 colon): 2230 nM | GI50 (SK-MEL-5 melanoma): 184 nM | TGI (SK-MEL-5 melanoma): 433 nM | GI50 (UACC-257 melanoma): 363 nM | TGI (UACC-257 melanoma): 3150 nM | GI50 (RXF 393 renal): 326 nM | TGI (RXF 393 renal): 1950 nM | GI50 (OVCAR-4 ovarian): 361 nM | TGI (OVCAR-4 ovarian): > 100000 nM | GI50 (K-562 leukemia): 307 nM | TGI (K-562 leukemia): > 100000 nM | GI50 (MOLT-4 leukemia): 356 nM | GI50 (HOP-92 NSCLC): 88.4 nM | TGI (HOP-92 NSCLC): 477 nM | GI50 (PC-3 prostate): 257 nM | TGI (PC-3 prostate): 17600 nM | GI50 (TK-10 renal): 554 nM | TGI (TK-10 renal): > 100000 nM | GI50 (DU-145 prostate): 447 nM | TGI (DU-145 prostate): > 100000 nM | GI50 (SNB-19 CNS): 384 nM | TGI (SNB-19 CNS): > 100000 nM | GI50 (SK-MEL-2 melanoma): 292 nM | TGI (SK-MEL-2 melanoma): 1290 nM | GI50 (M14 melanoma): 366 nM | TGI (M14 melanoma): 7130 nM | GI50 (OVCAR-3 ovarian): 299 nM | TGI (OVCAR-3 ovarian): > 100000 nM | GI50 (A498 renal): 137 nM | TGI (A498 renal): 611 nM | GI50 (OVCAR-5 ovarian): 1220 nM | TGI (OVCAR-5 ovarian): > 100000 nM
